Columns and labels:
Desulfovibrio vulgaris = assay: Log 10 Reduction of anaerobic bacterium in dosed bacterial suspension (serial dilution into API RP 38 media vials); assay type: cell-based; conditions: TDS 30,000 mg l^-1, ppm dose per Example, 6 = complete kill
Protocol: (§1) A suspension of Desulfovibrio vulgaris plus Enterobacter aerogenes bacteria containing from 1×10^6 to 1×10^8 cells/mL was prepared in sterile pH 8 phosphate buffer containing varying levels of sodium chloride to give the desired total dissolved solids (TDS) concentration. Aliquots of this suspension were dosed with the indicated concentrations of the phosphonium compound (a) and stabilised halogen containing composition (b) with the concentrations being measured as ppm by weight of the stated composition in the dosed suspension. The mixtures were allowed to stand at room temperature. At the designated contact times, each mixture was sampled to determine the total number of viable cells of both Desulfovibrio vulgaris and Enterobacter aerogenes by serial 10-fold dilution into API RP 38 media vials and anaerobic acid producing media vials, respectively. The vials were incubated at 37° C. for 72 hours. Results were recorded as cells per millilitre.
(§2) Aqueous media inoculated with anaerobe and aerobe culture and having a TDS of 30,000 mg l^−1 was treated with treatment agents comprising: (i) stabilised halogen containing composition; (ii) tri n-butyl n-tetradecyl phosphonium chloride (TTPC) or (iii) a combination of stabilised halogen containing composition and TTPC.
(§3) The efficacy of the treatment agents was evaluated by measuring the Log 10 Reduction of the anaerobic bacterium Desulfovibrio vulgaris and the facultative anaerobeic bacterium Enterobacter aerogenes after contact times of 1 hour, 4 hours and 24 hours as detailed in Table 1. For TTPC the stated ppm value relates to the amount of TTPC added (active). For the stabilised bromine composition the stated ppm relates to the amount of Bromax 7.1 added (product)
(§4) A Log 10 reduction of 6 represents a complete kill for anaerobes and a Log 10 reduction of 8 represents a complete kill for facultative anaerobes.

Enterobacter aerogenes = assay: Log 10 Reduction of facultative anaerobic bacterium in dosed bacterial suspension (serial dilution into anaerobic acid producing media vials); assay type: cell-based; conditions: TDS 30,000 mg l^-1, ppm dose per Example, 8 = complete kill
Protocol: as §1, §2, §3, §4

Row | Compound | Log10 Reduction Anaerobes (Desulfovibrio vulgaris; contact time 1 hour) | Log10 Reduction Facultative Anaerobes (Enterobacter aerogenes; contact time 1 hour) | Log10 Reduction Anaerobes (Desulfovibrio vulgaris; contact time 24 hours) | Log10 Reduction Facultative Anaerobes (Enterobacter aerogenes; contact time 24 hours) | further results
1 | CCCCCCCCCCCCCC[P+](CCCC)(CCCC)CCCC.[Cl-] [Example 2, tri n-butyl n-tetradecyl phosphonium chloride] | 6 | 4 | – | – | –
2 | CCCCCCCCCCCCCC[P+](CCCC)(CCCC)CCCC.[Cl-] [Example 1, tri n-butyl n-tetradecyl phosphonium chloride] | 3 | 1 | – | – | –
3 | CCCCCCCCCCCCCC[P+](CCCC)(CCCC)CCCC.[Cl-] [Example 9, tri n-butyl n-tetradecyl phosphonium chloride] | – | – | – | – | Log10 Reduction Anaerobes (Desulfovibrio vulgaris; contact time 4 hours): 6; Log10 Reduction Facultative Anaerobes (Enterobacter aerogenes; contact time 4 hours): 5
4 | CCCCCCCCCCCCCC[P+](CCCC)(CCCC)CCCC.[Cl-] [Example 17, tri n-butyl n-tetradecyl phosphonium chloride] | – | – | 6 | 5 | –
5 | CCCCCCCCCCCCCC[P+](CCCC)(CCCC)CCCC.[Cl-] [Example 18, tri n-butyl n-tetradecyl phosphonium chloride] | – | – | 6 | 8 | –

Reference: US10827758B2, “Relating to water treatment” (BWA WATER ADDITIVES UK LIMITED, priority 2014, dated 2020)
